The test system of assay [1] is human prostate cancer LNCaP cells. The assay is described as follows: Cytotoxic action on LNCaP cells (WST-8, 96 hr). It counts as cell-based. The following applies: 96 hr culture. The method, boiled down: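 Growth-inhibition format: 96 hr continuous exposure, 37° C, 5% CO2, 10% FBS/RPMI1640, WST-8 read-out. Values are IC50 against the untreated-control survival, taken from the line joining the two points around 50%.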
A general note: Formazan colour is commonly taken as a measure of viable cells.

In another assay the target is BRD4 protein (Homo sapiens (Human), UniProt O60885). Briefly: BRD4 protein degradation inducing action in LNCaP cells (immunofluorescence, 6 hr). Conditions: anti-BRD4 fluorescence intensity. It counts as cell-based. The method, boiled down: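 LNCaP cells in 10% FBS/RPMI1640 exposed to compound for 6 hr, fixed, permeabilized and immunostained for BRD4 with Alexa Fluor 546 secondary; fluorescence (ex 560, em 572 nm) read by imaging. DC50 = concentration giving 50% of untreated signal, interpolated linearly between the two bracketing points.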

One may read the IC50 as the concentration that inhibits the measured activity by half. What is called DC50 is the midpoint of the concentration-degradation curve. High values mean degradation only at high concentration, low ones degradation at low concentration. The compound `CCCOC(=O)C[C@@H]1N=C(c2ccc(-c3ccc(C(=O)NCc4ccc(S(=O)(=O)Nc5ccc(C)c6c(C#N)c[nH]c56)cc4)cc3)cc2)c2c(sc(C)c2C)-n2c(C)nnc21` [Example Compound 130, n-propyl [(6S)-4-{4′-[({4-[(3-cyano-4-methyl-1H-indol-7-yl)sulfamoyl]phenyl}methyl)carbamoyl][1,1′-biphenyl]-4-yl}-2,3,9-trimethyl-6H-thieno[3,2-f][1,2,4]triazolo[4,3-a][1,4]diazepin-6-yl]acetate] came in with a half-inhibitory concentration (IC50) in assay [1] of 0.05 nM. For the same compound, it took 0.028 nM to reach half-maximal degradation at BRD4 protein (DC50).
Regarding `COC(=O)C[C@@H]1N=C(c2ccc(-c3cnc(C(=O)NCc4ccc(S(=O)(=O)Nc5ccc(C)c6c(C#N)c[nH]c56)cc4)c(C)c3)cc2)c2c(sc(C)c2C)-n2c(C)nnc21` [Example 91, methyl [(6S)-4-(4-{6-[({4-[(3-cyano-4-methyl-1H-indol-7-yl)sulfamoyl]phenyl}methyl)carbamoyl]-5-methylpyridin-3-yl}phenyl)-2,3,9-trimethyl-6H-thieno[3,2-f][1,2,4]triazolo[4,3-a][1,4]diazepin-6-yl]acetate], in assay [1], the half-maximal inhibitory concentration (IC50) came out at 0.26 nM. On BRD4 protein, this compound registered a DC50 of 0.029 nM.
The like results for `CCOC(=O)C[C@@H]1N=C(c2ccc(-c3ccc(C(=O)NCc4ccc(S(=O)(=O)Nc5ccc(C)c6c(C#N)c[nH]c56)cc4)cc3)cc2)c2c(sc(C)c2C)-n2c(C)nnc21` [Example Compound 129, ethyl [(6S)-4-{4′-[({4-[(3-cyano-4-methyl-1H-indol-7-yl)sulfamoyl]phenyl}methyl)carbamoyl][1,1′-biphenyl]-4-yl}-2,3,9-trimethyl-6H-thieno[3,2-f][1,2,4]triazolo[4,3-a][1,4]diazepin-6-yl]acetate] were, in that order, 0.048 nM and 0.033 nM.
In assay [1], `COC(=O)C[C@@H]1N=C(c2ccc(-c3ccc(C(=O)NCc4ccc(S(=O)(=O)Nc5ccc(C)c6c(C#N)c[nH]c56)cc4)cc3)cc2)c2c(sc(CO)c2C)-n2c(C)nnc21` [Example 55, methyl [(6S)-4-{4′-[({4-[(3-cyano-4-methyl-1H-indol-7-yl)sulfamoyl]phenyl}methyl)carbamoyl][1,1′-biphenyl]-4-yl}-2-(hydroxymethyl)-3,9-dimethyl-6H-thieno[3,2-f][1,2,4]triazolo[4,3-a][1,4]diazepin-6-yl]acetate] showed an IC50 of 3 nM. Also, the 50% degradation concentration (DC50) at BRD4 protein worked out at 1.4 nM.
In assay [1], `Cc1sc2c(c1C)C(c1ccc(-c3ccc(C(=O)NCc4ccc(S(=O)(=O)Nc5ccc(C)c6c(C#N)c[nH]c56)cc4)cc3)cc1)=N[C@@H](CC(=O)NCCO)c1nnc(C)n1-2` [Example 37, N-({4-[(3-cyano-4-methyl-1H-indol-7-yl)sulfamoyl]phenyl}methyl)-4′-[(6S)-6-{2-[(2-hydroxyethyl)amino]-2-oxoethyl}-2,3,9-trimethyl-6H-thieno[3,2-f][1,2,4]triazolo[4,3-a][1,4]diazepin-4-yl][1,1′-biphenyl]-4-carboxamide] came in with a 50% inhibitory concentration (IC50) of 3 nM. It took 1.4 nM to reach half-maximal degradation on BRD4 protein (DC50).
In the case of `CCc1ccc(NS(=O)(=O)c2ccc(CNC(=O)c3cc(F)c(-c4ccc(C5=N[C@@H](CC(=O)OC)c6nnc(C)n6-c6sc(C)c(C)c65)cc4)cc3F)cc2)c2[nH]cc(C#N)c12` [Example Compound 119, methyl [(6S)-4-{4′-[({4-[(3-cyano-4-ethyl-1H-indol-7-yl)sulfamoyl]phenyl}methyl)carbamoyl]-2′,5′-difluoro[1,1′-biphenyl]-4-yl}-2,3,9-trimethyl-6H-thieno[3,2-f][1,2,4]triazolo[4,3-a][1,4]diazepin-6-yl]acetate], in assay [1], inhibition was half-maximal at 0.45 nM (IC50). Besides, the half-maximal degradation concentration (DC50) at BRD4 protein came to 0.27 nM.
Taken in the same sequence, the figures for `COC(=O)C[C@@H]1N=C(c2ccc(-c3ccc(C(=O)NCc4ccc(S(=O)(=O)Nc5ccc(C)c6c(C#N)c[nH]c56)cc4)s3)cc2)c2c(sc(C)c2C)-n2c(C)nnc21` [Example 59, methyl [(6S)-4-(4-{5-[({4-[(3-cyano-4-methyl-1H-indol-7-yl)sulfamoyl]phenyl}methyl)carbamoyl]thiophen-2-yl}phenyl)-2,3,9-trimethyl-6H-thieno[3,2-f][1,2,4]triazolo[4,3-a][1,4]diazepin-6-yl]acetate] were 0.23 nM and 0.22 nM.
The like results for `CCc1ccc(NS(=O)(=O)c2ccc(CNC(=O)c3cnc(-c4ccc(C5=N[C@@H](CC(=O)OC)c6nnc(C)n6-c6sc(C)c(C)c65)cc4)cn3)cc2)c2[nH]cc(C#N)c12` [Example 105, methyl [(6S)-4-(4-{5-[({4-[(3-cyano-4-ethyl-1H-indol-7-yl)sulfamoyl]phenyl}methyl)carbamoyl]pyrazin-2-yl}phenyl)-2,3,9-trimethyl-6H-thieno[3,2-f][1,2,4]triazolo[4,3-a][1,4]diazepin-6-yl]acetate] were, in that order, 0.13 nM and 0.054 nM.
In the case of `Cc1sc2c(c1C)C(c1ccc(-c3ccc(C(=O)NCc4ccc(S(=O)(=O)Nc5ccc(C)c6c(C#N)c[nH]c56)cc4)cc3)cc1)=N[C@@H](CC#N)c1nnc(C)n1-2` [Example 73, N-({4-[(3-cyano-4-methyl-1H-indol-7-yl)sulfamoyl]phenyl}methyl)-4′-[(6S)-6-(cyanomethyl)-2,3,9-trimethyl-6H-thieno[3,2-f][1,2,4]triazolo[4,3-a][1,4]diazepin-4-yl][1,1-biphenyl]-4-carboxamide], the midpoint of inhibition in assay [1], the IC50, lay at 1.7 nM. On BRD4 protein, this compound had a 50% degradation concentration (DC50) of 0.75 nM.
The like results for `CCc1ccc(NS(=O)(=O)c2ccc(CNC(=O)c3ccc(-c4ccc(C5=N[C@@H](CC(=O)OC)c6nnc(C)n6-c6sc(C)c(C)c65)cc4)c(C)c3)cc2)c2[nH]cc(C#N)c12` [Example Compound 117, methyl [(6S)-4-{4′-[({4-[(3-cyano-4-ethyl-1H-indol-7-yl)sulfamoyl]phenyl}methyl)carbamoyl]-2′-methyl[1,1′-biphenyl]-4-yl}-2,3,9-trimethyl-6H-thieno[3,2-f][1,2,4]triazolo[4,3-a][1,4]diazepin-6-yl]acetate] were, in that order, 0.41 nM and 0.16 nM.
The like results for `COC(=O)C[C@@H]1N=C(c2ccc(-c3ccc(C(=O)N[C@H](C)c4ccc(S(=O)(=O)Nc5ccc(C)c6c(C#N)c[nH]c56)cc4)c(C)c3)cc2)c2c(sc(C)c2C)-n2c(C)nnc21` [Example 86, methyl [(6S)-4-(4′-{[(1R)-1-{4-[(3-cyano-4-methyl-1H-indol-7-yl)sulfamoyl]phenyl}ethyl]carbamoyl}-3′-methyl[1,1′-biphenyl]-4-yl)-2,3,9-trimethyl-6H-thieno[3,2-f][1,2,4]triazolo[4,3-a][1,4]diazepin-6-yl]acetate] were, in that order, 0.35 nM and 0.059 nM.
The like results for `CCc1ccc(NS(=O)(=O)c2ccc([C@@H](C)NC(=O)c3ccc(-c4ccc(C5=N[C@@H](CC(=O)OC)c6nnc(C)n6-c6sc(C)c(C)c65)cc4)c(F)c3F)cc2)c2[nH]cc(C#N)c12` [Example Compound 122, methyl [(6S)-4-(4′-{[(1R)-1-{4-[(3-cyano-4-ethyl-1H-indol-7-yl)sulfamoyl]phenyl}ethyl]carbamoyl}-2′,3′-difluoro[1,1′-biphenyl]-4-yl)-2,3,9-trimethyl-6H-thieno[3,2-f][1,2,4]triazolo[4,3-a][1,4]diazepin-6-yl]acetate] were, in that order, 0.39 nM and 0.14 nM.
For the compound `COC(=O)C[C@@H]1N=C(c2ccc(-c3ccc(C(=O)N[C@H](C)c4ccc(S(=O)(=O)Nc5ccc(C)c6c(C#N)c[nH]c56)cc4)nc3)cc2)c2c(sc(C)c2C)-n2c(C)nnc21` [Example 92, methyl {(6S)-4-[4-(6-{[(1R)-1-{4-[(3-cyano-4-methyl-1H-indol-7-yl)sulfamoyl]phenyl}ethyl]carbamoyl}pyridin-3-yl)phenyl]-2,3,9-trimethyl-6H-thieno[3,2-f][1,2,4]triazolo[4,3-a][1,4]diazepin-6-yl}acetate], in assay [1], the IC50 was 0.087 nM. The compound also had a DC50 on BRD4 protein of 0.041 nM.
Taken in the same sequence, the figures for `Cc1sc2c(c1C)C(c1ccc(-c3ccc(C(=O)NCc4ccc(S(=O)(=O)Nc5ccc(C)c6c(C#N)c[nH]c56)cc4)c(F)c3F)cc1)=N[C@@H](CC(=O)OC(C)(C)C)c1nnc(C)n1-2` [Example Compound 138, t-butyl [(6S)-4-{4′-[({4-[(3-cyano-4-methyl-1H-indol-7-yl)sulfamoyl]phenyl}methyl)carbamoyl]-2′,3′-difluoro[1,1′-biphenyl]-4-yl}-2,3,9-trimethyl-6H-thieno[3,2-f][1,2,4]triazolo[4,3-a][1,4]diazepin-6-yl]acetate] were 0.77 nM and 0.32 nM.
For the compound `COC(=O)C[C@@H]1N=C(c2ccc(-c3ccc(C(=O)NCc4ccc(S(=O)(=O)Nc5ccc(C)c6c(Cl)c[nH]c56)cc4)cc3)cc2)c2c(sc(C)c2C)-n2c(C)nnc21` [Example 8, methyl [(6S)-4-{4′-[({4-[(3-chloro-4-methyl-1H-indol-7-yl)sulfamoyl]phenyl}methyl)carbamoyl][1,1′-biphenyl]-4-yl}-2,3,9-trimethyl-6H-thieno[3,2-f][1,2,4]triazolo[4,3-a][1,4]diazepin-6-yl]acetate], 2.8 nM corresponded to half-maximal inhibition in assay [1] (IC50). The same compound showed a half-maximal degradation concentration (DC50) on BRD4 protein of 2.4 nM.
Take `COC(=O)NC1N=C(c2ccc(-c3ccc(C(=O)NCc4ccc(S(=O)(=O)Nc5ccc(C)c6c(C#N)c[nH]c56)cc4)cc3)cc2)c2c(sc(C)c2C)-n2c(C)nnc21` (centres unmarked) [Example 36, methyl (4-{4′-[({4-[(3-cyano-4-methyl-1H-indol-7-yl)sulfamoyl]phenyl}methyl)carbamoyl][1,1′-biphenyl]-4-yl}-2,3,9-trimethyl-6H-thieno[3,2-f][1,2,4]triazolo[4,3-a][1,4]diazepin-6-yl)carbamate]: the IC50 in assay [1] amounted to 1.4 nM. Moreover, half-maximal degradation on BRD4 protein (DC50) was put at 0.41 nM.

The values above are taken from US11890288B2, “Sulfonamide or sulfinamide compound having effect of inducing BRD4 protein degradation and pharmaceutical use thereof” (MITSUBISHI TANABE PHARMA CORPORATION, priority 2020, dated 2024).
